Tests used:
[1] = Inhibitory concentration against KDO 8-P synthase
[2] = Inhibitory concentration against Chorismate mutase; set-up: species or system Bacillus subtilis
[3] = kinact was determined.
[4] = Binding affinity constant against KDO 8-P synthase

| IC50 [1] [mM] | IC50 [2] [µM] | K inact [3] | Ki [4] [mM] | SMILES |
| --- | --- | --- | --- | --- |
| > 0.5 | – | – | – | O=C(O)C1=C(C(=O)O)C2C=CC1[C@@H]1C(C(=O)O)[C@H]21 (stereo not given in full) |
| > 1 | – | – | – | O=C(O)C1C2C=CC(C3CC23)C1C(=O)O (stereo not given) |
| > 1 | 350 | – | – | O=C(O)CC1(O)CCCCC1 |
| > 1 | – | – | – | O=C(O)C1C2C=CC(CCC2)C1C(=O)O (stereo not given) |
| > 1 | – | – | – | CC1(C(=O)[O-])CCC(C(=O)[O-])C1(C)C.[Na+].[Na+] (stereo not given) |
| 0.4 | – | 0.01 | 2.3 | CCCC/N=C(\S)C(O)C(O)C(O)C(O)CO (stereo not given) |
| > 1 | – | – | – | O=C(O)C12CCC(C(=O)O)(CC1=O)C(=O)C2 |

Reference: ChEMBL document CHEMBL1133822, “Studies on 3-deoxy-D-manno-octulosonic acid 8-phosphate synthase using chorismate mutase inhibitors” (Bioorg Med Chem Lett, 2001)
